Test results published in PMC9626498 (Scientific Reports, 2022).

Legend:
[1] = molecular target: butyrylcholinesterase (BChE) (Equus caballus, UniProt P81908); assay: modified Ellman spectrophotometric assay; assay type: biochemical
[2] = molecular target: acetylcholinesterase (AChE) (Electrophorus electricus, UniProt O42275); assay: modified Ellman spectrophotometric assay; assay type: biochemical
acetylcholinesterase (AChE), sequence (O42275 24-633): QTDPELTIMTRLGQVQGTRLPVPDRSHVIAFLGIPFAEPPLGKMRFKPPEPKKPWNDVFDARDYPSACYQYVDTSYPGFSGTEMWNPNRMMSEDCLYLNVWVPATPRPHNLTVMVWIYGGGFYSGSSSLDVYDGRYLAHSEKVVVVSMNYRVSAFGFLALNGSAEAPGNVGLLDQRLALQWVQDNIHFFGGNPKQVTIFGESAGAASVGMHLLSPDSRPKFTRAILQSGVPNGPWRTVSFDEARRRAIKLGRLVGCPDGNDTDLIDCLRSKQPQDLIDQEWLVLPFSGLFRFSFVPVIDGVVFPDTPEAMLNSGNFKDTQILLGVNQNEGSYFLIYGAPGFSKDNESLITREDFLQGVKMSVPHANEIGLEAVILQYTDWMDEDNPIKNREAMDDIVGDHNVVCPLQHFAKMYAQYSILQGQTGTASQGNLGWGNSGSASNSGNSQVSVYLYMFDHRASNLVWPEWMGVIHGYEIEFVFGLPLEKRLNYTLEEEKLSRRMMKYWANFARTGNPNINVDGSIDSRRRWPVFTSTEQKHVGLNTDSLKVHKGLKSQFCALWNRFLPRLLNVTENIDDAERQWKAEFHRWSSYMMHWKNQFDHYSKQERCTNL

butyrylcholinesterase (BChE), sequence (P81908 whole entry): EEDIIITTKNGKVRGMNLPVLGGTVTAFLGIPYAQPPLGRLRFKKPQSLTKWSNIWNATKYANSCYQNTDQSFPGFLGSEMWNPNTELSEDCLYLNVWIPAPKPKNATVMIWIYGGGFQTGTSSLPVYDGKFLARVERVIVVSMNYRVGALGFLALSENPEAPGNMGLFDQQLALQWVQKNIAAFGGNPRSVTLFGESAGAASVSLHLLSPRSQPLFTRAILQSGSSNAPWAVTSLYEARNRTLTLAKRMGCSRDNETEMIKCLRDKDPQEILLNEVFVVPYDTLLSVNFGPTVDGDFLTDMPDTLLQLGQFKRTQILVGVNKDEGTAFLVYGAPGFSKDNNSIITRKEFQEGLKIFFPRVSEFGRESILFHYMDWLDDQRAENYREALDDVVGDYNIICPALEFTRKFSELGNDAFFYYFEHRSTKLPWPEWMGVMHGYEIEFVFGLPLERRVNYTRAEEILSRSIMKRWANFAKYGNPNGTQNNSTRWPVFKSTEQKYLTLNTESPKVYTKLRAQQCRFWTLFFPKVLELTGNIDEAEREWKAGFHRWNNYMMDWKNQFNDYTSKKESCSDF

C[C@@H]1O[C@@H](O[C@H]2C(=O)c3c(O)cc(O)cc3O[C@@H]2c2cc(O)c(O)c(O)c2)[C@H](O)[C@H](O)[C@H]1O [compound 1, dihydromyricetin 3-O-rhamnoside]
IC50 [1]: 71 ± 4 µM | IC50 [2]: 70 ± 8 µM
